Measurements reported in patent publication US6319916A, “Heterocyclic compounds, their production and use” (Takeda Chemical Industries, Ltd., priority 1992, dated 2001).
Structures can show the parent of a compound that is named as a salt.

Legend:
[1] = target: T1, Acetylcholinesterase (Rattus norvegicus, UniProt P37136); assay: Cholinesterase inhibitory activity with (acetyl[^3 H])-acetylcholine; type: biochemical; settings: S1 fraction of homogenate of male Wistar rat cerebral cortex; 30 minutes incubation
T1 construct: S1 fraction of a homogenate of male Wistar rat cerebral cortex as the cholinesterase source; from tissue; host or cells: male Wistar rat cerebral cortex, S1 fraction of homogenate
T1 sequence (P37136 32-614): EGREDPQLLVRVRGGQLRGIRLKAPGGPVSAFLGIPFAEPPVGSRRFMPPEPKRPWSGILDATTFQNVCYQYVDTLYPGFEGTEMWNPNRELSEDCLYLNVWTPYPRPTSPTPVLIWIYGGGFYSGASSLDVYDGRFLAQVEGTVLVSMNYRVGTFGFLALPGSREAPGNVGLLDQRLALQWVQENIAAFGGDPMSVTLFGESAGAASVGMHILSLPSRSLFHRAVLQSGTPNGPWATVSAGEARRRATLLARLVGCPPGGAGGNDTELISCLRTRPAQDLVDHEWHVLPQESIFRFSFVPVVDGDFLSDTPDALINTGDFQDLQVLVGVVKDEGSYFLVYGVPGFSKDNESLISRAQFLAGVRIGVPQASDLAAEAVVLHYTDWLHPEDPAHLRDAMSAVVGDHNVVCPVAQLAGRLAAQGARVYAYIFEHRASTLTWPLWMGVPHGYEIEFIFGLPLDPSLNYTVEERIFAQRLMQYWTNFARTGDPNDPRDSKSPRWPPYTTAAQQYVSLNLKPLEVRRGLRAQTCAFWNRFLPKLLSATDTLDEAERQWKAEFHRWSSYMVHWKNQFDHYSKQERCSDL
Procedure: The cholinesterase inhibitory activity of the compound of this invention was assayed with (acetyl[^3 H])-acetylcholine. More specifically, (acetyl[^3 H])-acetylcholine as the substrate and the compound of this invention as the test sample were added to the S1 fraction of a homogenate of male Wistar rat cerebral cortex as the cholinesterase source. The mixture was incubated for 30 minutes, after completion of the reaction, to the reaction mixture was added a toluene-based scintillator, and the mixture was shaken. The reaction product [^3 H]-acetic acid was transferred to the toluene layer, which was subjected to determination of cholinesterase inhibitory activity by counting with a liquid scintillation counter.
The cholinesterase inhibitory activity of the test compound was expressed in 50% inhibitory concentration (IC50).

[2] = test system: mice; assay: Antidepressant activity, tail suspension test; type: in vivo, ICR male mice; settings: 30 mg/kg, oral; thirty minutes later suspended on tails for 10 minutes; **P < 0.01; saline 49.45 ± 2.47
Procedure: The antidepressant activity of the compound of the present invention was assayed by means of tail suspension test using ICR male mice (five weeks of age, weighing 23.5 to 37.6 g) as test animals. […]. Thirty minutes later, the mice were suspended on tails for 10 minutes and immobility thereof (% control) was measured. The antidepressant activity of the test compound was shown as in percent control of immobility. As a comparative compound, desipramine, which is known to have an antidepressant activity, was employed and the immobility thereof was measured in the same manner as described above.

Compound | IC50 [1] [nM] | Immobility [2] [%]
O=C(CCC1CCN(Cc2ccccc2)CC1)c1ccc2c(c1)CNCCO2 [3-A, 3-[1-(Phenylmethyl)piperidin-4-yl]-1-(2,3,4,5-tetrahydro-1,4-benzoxazepin-7-yl)-1-propanone dihydrochloride] | 17.5 | 
Cl.Cl.O=C(CCC1CCN(Cc2ccccc2)CC1)c1ccc2c(c1)CN(Cc1ccccc1)CCO2 [3-B, 1-[4-(Phenylmethyl)-2,3,4,5-tetrahydro-1,4-benzoxazepin-7-yl]-3-[1-(phenylmethyl)piperidin-4-yl]-1-propanone dihydrochloride] | 119 | 34.37 ± 4.49
O=C(CCC1CCN(Cc2ccccc2)CC1)c1ccc2c(c1)CN(Cc1ccc([N+](=O)[O-])cc1)CCO2 [8-5] | 12.7 | 
CC(=O)N1CCOc2ccc(C(=O)CCC3CCN(Cc4ccccc4)CC3)cc2C1 [Example 4, 1-(4-Acetyl-2,3,4,5-tetrahydro-1,4-benzoxazepin-7-yl)-3-[1-(phenylmethyl)piperidin-4-yl]-1-propanone hydrochloride] | 54.5 | 
COc1ccc(CN2CCOc3ccc(C(=O)CCC4CCN(Cc5ccccc5)CC4)cc3C2)cc1 [Example 5, 1-[4-(4-Methoxyphenylmethyl)-2,3,4,5-tetrahydro-1,4-benzoxazepin-7-yl]-3-[1-(phenylmethyl)piperidin-4-yl]-1-propanone dihydrochloride] | 69.6 | 
O=CN1CCOc2ccc(C(=O)CCN3CCN(Cc4ccccc4)CC3)cc2C1 [Example 6, 1-(4-Formyl-2,3,4,5-tetrahydro-1,4-benzoxazepin-7-yl)-3-[4-(phenylmethyl)piperazin-1-yl]-1-propanone dihydrochloride] | 107 | 
CNCCCN1c2ccccc2CCc2ccccc21 [desipramine, reference compound] |  | 37.25 ± 3.32
